Measurements from patent US8785488B2 (Exelixis Patent Company LLC, priority 2009, dated 2014).
Read-outs that look alike come from different tables or passages of the source.

Biological target: T1, human TGR5 (h-TGR5) (Homo sapiens, UniProt Q8TDU6)
T1 construct: expressed in transfected cells
T1 sequence (Q8TDU6 1-330): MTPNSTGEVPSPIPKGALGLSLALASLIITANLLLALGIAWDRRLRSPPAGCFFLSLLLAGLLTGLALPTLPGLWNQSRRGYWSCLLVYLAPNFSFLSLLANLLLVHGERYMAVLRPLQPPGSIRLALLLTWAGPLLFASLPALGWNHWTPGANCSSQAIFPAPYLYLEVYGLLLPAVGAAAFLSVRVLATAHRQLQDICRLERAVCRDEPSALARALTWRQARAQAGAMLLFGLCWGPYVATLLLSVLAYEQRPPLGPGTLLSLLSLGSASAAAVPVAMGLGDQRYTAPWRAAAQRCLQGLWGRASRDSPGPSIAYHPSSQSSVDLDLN
Assay: TGR5/CRE-Luciferiase Assay (HEK 293 hTGR5/CRE-Luc cells)
Type: cell-based
Outline: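 HEK293 cells stably carrying hTGR5 and a CRE-luciferase reporter were exposed to serially diluted compounds (diluted in DMEM with 5% DMSO) for 6 h. Cells were then lysed in luciferase buffer, luminescence was read, and EC50 values were derived from dose-response curves.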

[1] = h-TGR5 CRE-Luc EC50, Table 1, read-out: CRE-Luc (EC50)
[2] = HEK 293 hTGR5/CRE-Luc cells, 6 hours incubation, luciferase activity, Table 2, read-out: h-TGR5CRE-Luc EC50 (CRE-Luc)

Structure (SMILES) | EC50 [1] [nM] | EC50 [2] [nM]
COc1cc(C(C)(C)c2cnc(SCC3CCN(CC(=O)O)CC3)n2-c2ccc(F)cc2)ccc1Cl [[4-({[5-{1-[4-chloro-3-(methyloxy)phenyl]-1-methylethyl}-1-(4-fluorophenyl)-1H-imidazol-2-yl]thio}methyl)piperidin-1-yl]acetic acid] | 1000 to 10000 | –
CC(C)(c1ccc(S(C)(=O)=O)cc1)c1cnc(SCc2c(F)cccc2Cl)n1-c1ccc(F)cc1 [2-{[(2-chloro-6-fluorophenyl)methyl]thio}-1-(4-fluorophenyl)-5-{1-methyl-1-[4-(methylsulfonyl)phenyl]ethyl}-1H-imidazole] | 100 to 1000 | –
CC(C)(c1ccc(Cl)c(Cl)c1)c1cnc(SCc2c(F)cccc2Cl)n1-c1ccc(Cl)c(F)c1 [1-(4-chloro-3-fluorophenyl)-2-{[(2-chloro-6-fluorophenyl)methyl]thio}-5-[1-(3,4-dichlorophenyl)-1-methylethyl]-1H-imidazole] | 100 to 1000 | –
CC(C)(c1ccc(Cl)c(Cl)c1)c1cnc(CSc2ccc(Cl)c(Cl)c2)n1-c1ccc(F)cc1 [5-[1-(3,4-dichlorophenyl)-1-methylethyl]-2-{[(3,4-dichlorophenyl)thio]methyl}-1-(4-fluorophenyl)-1H-imidazole] | 100 to 1000 | –
CC(C)(c1ccc(Cl)c(Cl)c1)c1cnc(SCc2c(F)cccc2Cl)n1CCO [2-(2-{[(2-chloro-6-fluorophenyl)methyl]thio}-5-[1-(3,4-dichlorophenyl)-1-methylethyl]-1H-imidazol-1-yl)ethanol] | 100 to 1000 | –
CC(C)(c1ccc(Cl)cc1)c1cnc(SCc2c(F)cccc2Cl)n1-c1ccc(F)cc1 [2-{[(2-chloro-6-fluorophenyl)methyl]thio}-5-[1-(4-chlorophenyl)-1-methylethyl]-1-(4-fluorophenyl)-1H-imidazole] | 100 to 1000 | –
CC(C)(c1ccc(C(F)(F)F)cc1)c1cnc(SCc2c(F)cccc2Cl)n1-c1ccc(F)cc1 [2-{[(2-chloro-6-fluorophenyl)methyl]thio}-1-(4-fluorophenyl)-5-{1-methyl-1-[4-(trifluoromethyl)phenyl]ethyl}-1H-imidazole] | 100 to 1000 | –
CC(C)(O)c1ccc(C(C)(C)c2cnc(SCc3ccc(F)cc3Cl)n2-c2ccc(F)cc2)cc1Cl [2-(2-chloro-4-{1-[2-{[(2-chloro-4-fluorophenyl)methyl]thio}-1-(4-fluorophenyl)-1H-imidazol-5-yl]-1-methylethyl}phenyl)propan-2-ol] | 100 to 1000 | –
CC(C)(c1ccc(Cl)c(Cl)c1)c1cnc(SCc2c(F)cccc2Cl)n1-c1ccc(Cl)cc1F [1-(4-chloro-2-fluorophenyl)-2-{[(2-chloro-6-fluorophenyl)methyl]thio}-5-[1-(3,4-dichlorophenyl)-1-methylethyl]-1H-imidazole] | 100 to 1000 | –
CC(C)(O)c1cc(CSc2ncc(C(C)(C)c3ccc(Cl)c(Cl)c3)n2-c2ccc(F)cc2)ccc1F [2-{5-[({5-[1-(3,4-dichlorophenyl)-1-methylethyl]-1-(4-fluorophenyl)-1H-imidazol-2-yl}thio)methyl]-2-fluorophenyl}propan-2-ol] | 100 to 1000 | –
CC(C)(c1ccc(Cl)c(Cl)c1)c1cnc(S(=O)(=O)Cc2ccc(F)c(C(F)(F)F)c2)n1-c1ccc(F)cc1 [5-[1-(3,4-dichlorophenyl)-1-methylethyl]-1-(4-fluorophenyl)-2-({[4-fluoro-3-(trifluoromethyl)phenyl]methyl}sulfonyl)-1H-imidazole] | 100 to 1000 | –
CC(C)(c1ccc(Cl)c(Cl)c1)c1cnc(COc2ccc3ncccc3c2)n1-c1ccc(F)cc1 [6-[({5-[1-(3,4-dichlorophenyl)-1-methylethyl]-1-(4-fluorophenyl)-1H-imidazol-2-yl}methyl)oxy]quinoline] | 100 to 1000 | –
CC(C)(c1ccc(Cl)c(Cl)c1)c1cnc(SCc2c(F)cc(C(=O)O)cc2F)n1-c1ccc(F)c(CO)c1 [4-[({5-[1-(3,4-dichlorophenyl)-1-methylethyl]-1-[4-fluoro-3-(hydroxymethyl)phenyl]-1H-imidazol-2-yl}thio)methyl]-3,5-difluorobenzoic acid] | 100 to 1000 | –
CC(C)(O)COc1cc(CSc2ncc(C(C)(C)c3ccc(Cl)c(Cl)c3)n2-c2ccc(F)cc2)ccc1F [1-({5-[({5-[1-(3,4-dichlorophenyl)-1-methylethyl]-1-(4-fluorophenyl)-1H-imidazol-2-yl}thio)methyl]-2-fluorophenyl}oxy)-2-methylpropan-2-ol] | 100 to 1000 | –
CC(C)(Oc1cc(-n2c(C(C)(C)c3ccc(Cl)c(Cl)c3)cnc2SCc2ccc(F)cc2Cl)ccc1F)C(=O)O [2-{[5-(2-{[(2-chloro-4-fluorophenyl)methyl]thio}-5-[1-(3,4-dichlorophenyl)-1-methylethyl]-1H-imidazol-1-yl)-2-fluorophenyl]oxy}-2-methylpropanoic acid] | 1000 to 10000 | –
CC(C)(c1ccc(Cl)c(Cl)c1)c1cnc(SCc2c(F)cc(C#N)cc2F)n1-c1ccc(F)cc1 [4-[({5-[1-(3,4-dichlorophenyl)-1-methylethyl]-1-(4-fluorophenyl)-1H-imidazol-2-yl}thio)methyl]-3,5-difluorobenzonitrile] | < 100 | –
CC(C)(c1ccc(Cl)c(Cl)c1)c1cnc(SCc2ccc(F)cc2Cl)n1-c1ccc(N2CCOCC2)cc1 [4-[4-(2-{[(2-chloro-4-fluorophenyl)methyl]thio}-5-[1-(3,4-dichlorophenyl)-1-methylethyl]-1H-imidazol-1-yl)phenyl]morpholine] | 1000 to 10000 | –
CC(C)(c1ccc(Cl)c(Cl)c1)c1cnc(SCc2ccc(F)cc2Cl)n1-c1ccc(F)c(OCC(=O)O)c1 [{[5-(2-{[(2-chloro-4-fluorophenyl)methyl]thio}-5-[1-(3,4-dichlorophenyl)-1-methylethyl]-1H-imidazol-1-yl)-2-fluorophenyl]oxy}acetic acid] | 1000 to 10000 | –
CC(C)(c1ccc(Cl)c(Cl)c1)c1cnc(SCc2ccc(F)c(C#N)c2)n1-c1ccc(F)cc1 [5-[({5-[1-(3,4-dichlorophenyl)-1-methylethyl]-1-(4-fluorophenyl)-1H-imidazol-2-yl}thio)methyl]-2-fluorobenzonitrile] | 100 to 1000 | –
CS(=O)(=O)c1ccc(Cc2nnc(SCc3ccc(F)cc3Cl)n2-c2ccc(F)cc2)cc1 [Example 44] | – | 1000 to 10000
COc1c(Cl)cc(C(C)(C)c2cnc(SCc3ccc(F)c(S(N)(=O)=O)c3)n2-c2ccc(F)cc2)cc1Cl [5-({[5-{1-[3,5-dichloro-4-(methyloxy)phenyl]-1-methylethyl}-1-(4-fluorophenyl)-1H-imidazol-2-yl]thio}methyl)-2-fluorobenzenesulfonamide] | < 100 | –
CC(C)(c1ccc2nccnc2c1)c1nnc(SCc2ccc(Cl)c(-c3nnn[nH]3)c2)n1-c1ccc(F)cc1 [Example 46] | – | 1000 to 10000
Fc1ccc(CSc2nnc(Cc3ccc(Cl)c(Cl)c3)n2-c2ccc(F)cc2)cc1 [Example 17] | – | 1000 to 10000
CC(C)(c1ccc(F)c(F)c1)c1cnc(SCc2ccc(F)c(C(=O)O)c2)n1-c1ccc(F)cc1 [5-[({5-[1-(3,4-difluorophenyl)-1-methylethyl]-1-(4-fluorophenyl)-1H-imidazol-2-yl}thio)methyl]-2-fluorobenzoic acid] | 100 to 1000 | –
CC(C)(c1ccc(Cl)c(Cl)c1)c1cnc(SCC2CCN(c3ccc(F)cc3)CC2)n1-c1ccc(F)cc1 [4-[({5-[1-(3,4-dichlorophenyl)-1-methylethyl]-1-(4-fluorophenyl)-1H-imidazol-2-yl}thio)methyl]-1-(4-fluorophenyl)piperidine] | 1000 to 10000 | –
